Results taken from US11123272B2, “Cosmetic blends” (Symrise AG, priority 2016, dated 2021).

Biological target: T1, human TREK-1 receptor (Homo sapiens, UniProt O95069)
T1 construct: expressed in transfected cells
T1 sequence (O95069 1-426): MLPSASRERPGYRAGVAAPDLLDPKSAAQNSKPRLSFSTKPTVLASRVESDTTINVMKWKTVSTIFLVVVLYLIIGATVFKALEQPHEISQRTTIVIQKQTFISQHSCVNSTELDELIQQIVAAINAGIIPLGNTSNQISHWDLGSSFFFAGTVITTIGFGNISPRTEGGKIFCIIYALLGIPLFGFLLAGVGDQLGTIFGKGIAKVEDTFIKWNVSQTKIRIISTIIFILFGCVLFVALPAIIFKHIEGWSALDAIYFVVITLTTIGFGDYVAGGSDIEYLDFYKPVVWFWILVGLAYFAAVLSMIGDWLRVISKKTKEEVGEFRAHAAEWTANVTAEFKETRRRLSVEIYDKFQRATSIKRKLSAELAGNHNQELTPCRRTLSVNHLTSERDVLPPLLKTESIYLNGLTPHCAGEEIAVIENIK
Assay: TREK receptor screening: TREK-1 mediated currents by manual patch clamp in transfected frog oocytes
Format: cell-based
Details: at 1 mMol; None = 1.000
From the text: The human TREK-1 receptor is a temperature sensitive, mechano-gated potassium channels, present in human skin and neuronal cells. It is known to be involved in the signaling of temperature sensation. Here it cooperates with other ion channels in the relevant cell types.
To screen for TREK-1 receptor channel blockers, frog oocyte were transfected to transiently overexpress the human TREK-1 receptor. A substance database was screened on the cells. Read out was TREK-1medited currents, detected by manual patch clamp.

Row | Compound | Blockade of TREK-1 receptor, F.I.
1 | CNCCC(Oc1ccc(C(F)(F)F)cc1)c1ccccc1 (centres unmarked) [Fluoxetine, reference compound] | 0.679
2 | CCCCCCC(O)CO (centres unmarked) [1,2-Octandiol] | 0.855
3 | CCCCCCCCC(O)CO (centres unmarked) [1,2-Decandiol] | 0.773
4 | CCCCCCCCCCC(O)CO (centres unmarked) [1,2-Dodecandiol] | 0.733
5 | CCCCC(O)CO (centres unmarked) [1,2-Hexandiol] | 0.942
